Key:
Assay in all cases: Test E flooded paddy test
Details in all cases: Flood, after 21 days, scale 0 to 100
[1] = tested on: water seeded rice seedlings; assay type: in vivo, Oryza sativa cv. ‘Japonica -M202’
Excerpt: (§1) Three plastic pots (ca. 16-cm diameter) per rate were partially filled with sterilized Tama silt loam soil comprising a 35:50:15 ratio of sand, silt and clay and 2.6% organic matter. Separate plantings for each of the three pots were as follows. Seeds from the U.S. of ducksalad (Heteranthera limosa), smallflower umbrella sedge (Cyperus difformis) and purple […] coccinea), were planted into one 16-cm pot for each rate. […] Seeds from the U.S. of barnyardgrass (Echinochloa crus-galli), late watergrass (Echinochloa oryzicola), early watergrass (Echinochloa oryzoides) and junglerice (Echinochloa colona) were planted into one 16-cm pot for each rate. Plantings were sequential so that crop and weed species were at the 2.0 to 2.5-leaf stage at time of treatment. Potted plants were grown in a greenhouse with day/night temperature settings of 30/27° C., and supplemental balanced lighting was provided to maintain a 16-hour photoperiod. Test pots were maintained in the greenhouse until test completion. At time of treatment, test pots were flooded to 3 cm above the soil surface, treated by application of test compounds directly to the paddy water, and then maintained at that water depth for the duration of the test. Effects of treatments on rice and weeds were visually evaluated by comparison to untreated controls after 21 days. […] A dash (-) response means no test result.

[2] = tested on: smallflower umbrella sedge; assay type: in vivo, Cyperus difformis
Excerpt: as §1

junglerice = assay type: in vivo, Echinochloa colona
Excerpt: as §1

early watergrass = assay type: in vivo, Echinochloa oryzoides
Excerpt: as §1

rice flatsedge = assay type: in vivo, Cyperus iria
Excerpt: as §1

ducksalad = assay type: in vivo, Heteranthera limosa
Excerpt: as §1

bearded sprangletop = assay type: in vivo, Leptochloa fascicularis
Excerpt: as §1

barnyardgrass = assay type: in vivo, Echinochloa crus-galli
Excerpt: as §1

late watergrass = assay type: in vivo, Echinochloa oryzicola
Excerpt: as §1

purple redstem = assay type: in vivo, Ammannia coccinea
Excerpt: as §1

[3] = tested on: transplanted rice seedlings; assay type: in vivo, Oryza sativa cv. ‘Japonica-M202’
Excerpt: as §1

With `C#CCOc1c(C[S+]([O-])c2cccc[n+]2[O-])c(C(F)(F)F)nn1C` (stereo not drawn) [Compound 76] the “Plant response rating, Rice, Waterseeded” value ([1]; 64 g ai/ha) was 10, the “Plant response rating, Rice, Waterseeded” value ([1]; 125 g ai/ha) was 10 and the “Plant response rating, Rice, Waterseeded” value ([1]; 1000 g ai/ha) was 40. For the same molecule, the “Plant response rating, Sedge, Umbrella” value ([2]; 64 g ai/ha) was 60, the “Plant response rating, Sedge, Umbrella” value ([2]; 125 g ai/ha) was 90 and the “Plant response rating, Sedge, Umbrella” value ([2]; 250 g ai/ha) was 95. The “Plant response rating, Sedge, Umbrella” value ([2]; 500 g ai/ha) was 95, the “Plant response rating, Sedge, Umbrella” value ([2]; 1000 g ai/ha) was 95 and the “Plant response rating, Junglerice” value (junglerice; 64 g ai/ha) was 0. The “Plant response rating, Junglerice” value (junglerice; 125 g ai/ha) was 60, the “Plant response rating, Junglerice” value (junglerice; 250 g ai/ha) was 75 and the “Plant response rating, Junglerice” value (junglerice; 500 g ai/ha) was 100. For the same molecule, the “Plant response rating, Junglerice” value (junglerice; 1000 g ai/ha) was 100, the “Plant response rating, Watergrass, Early” value (early watergrass; 64 g ai/ha) was 0 and the “Plant response rating, Watergrass, Early” value (early watergrass; 125 g ai/ha) was 50. For the same molecule, the “Plant response rating, Watergrass, Early” value (early watergrass; 250 g ai/ha) was 75, the “Plant response rating, Watergrass, Early” value (early watergrass; 500 g ai/ha) was 100 and the “Plant response rating, Watergrass, Early” value (early watergrass; 1000 g ai/ha) was 100. The “Plant response rating, Flatsedge, Rice” value (rice flatsedge; 64 g ai/ha) was 85, the “Plant response rating, Flatsedge, Rice” value (rice flatsedge; 125 g ai/ha) was 95 and the “Plant response rating, Flatsedge, Rice” value (rice flatsedge; 250 g ai/ha) was 95. The “Plant response rating, Flatsedge, Rice” value (rice flatsedge; 500 g ai/ha) was 100, the “Plant response rating, Flatsedge, Rice” value (rice flatsedge; 1000 g ai/ha) was 100 and the “Plant response rating, Ducksalad” value (ducksalad; 64 g ai/ha) was 40. The “Plant response rating, Ducksalad” value (ducksalad; 125 g ai/ha) was 40, the “Plant response rating, Ducksalad” value (ducksalad; 250 g ai/ha) was 40 and the “Plant response rating, Ducksalad” value (ducksalad; 500 g ai/ha) was 95. The “Plant response rating, Ducksalad” value (ducksalad; 1000 g ai/ha) was 95, the “Plant response rating, Sprangletop, Brdd.” value (bearded sprangletop; 64 g ai/ha) was 20 and the “Plant response rating, Sprangletop, Brdd.” value (bearded sprangletop; 125 g ai/ha) was 70. For the same molecule, the “Plant response rating, Sprangletop, Brdd.” value (bearded sprangletop; 250 g ai/ha) was 70, the “Plant response rating, Sprangletop, Brdd.” value (bearded sprangletop; 500 g ai/ha) was 65 and the “Plant response rating, Sprangletop, Brdd.” value (bearded sprangletop; 1000 g ai/ha) was 65. For the same molecule, the “Plant response rating, Barnyardgrass” value (barnyardgrass; 64 g ai/ha) was 0, the “Plant response rating, Barnyardgrass” value (barnyardgrass; 125 g ai/ha) was 60 and the “Plant response rating, Barnyardgrass” value (barnyardgrass; 250 g ai/ha) was 85. For the same molecule, the “Plant response rating, Barnyardgrass” value (barnyardgrass; 500 g ai/ha) was 95, the “Plant response rating, Barnyardgrass” value (barnyardgrass; 1000 g ai/ha) was 95 and the “Plant response rating, Watergrass, Late” value (late watergrass; 64 g ai/ha) was 0. The “Plant response rating, Watergrass, Late” value (late watergrass; 125 g ai/ha) was 40, the “Plant response rating, Watergrass, Late” value (late watergrass; 250 g ai/ha) was 75 and the “Plant response rating, Watergrass, Late” value (late watergrass; 500 g ai/ha) was 95. The “Plant response rating, Watergrass, Late” value (late watergrass; 1000 g ai/ha) was 95, the “Plant response rating, Redstem” value (purple redstem; 64 g ai/ha) was 0 and the “Plant response rating, Redstem” value (purple redstem; 125 g ai/ha) was 40. For the same molecule, the “Plant response rating, Redstem” value (purple redstem; 250 g ai/ha) was 95, the “Plant response rating, Redstem” value (purple redstem; 500 g ai/ha) was 100 and the “Plant response rating, Redstem” value (purple redstem; 1000 g ai/ha) was 100. For the same molecule, the “Plant response rating, Rice, Transplanted” value ([3]; 64 g ai/ha) was 10, the “Plant response rating, Rice, Transplanted” value ([3]; 125 g ai/ha) was 10 and the “Plant response rating, Rice, Transplanted” value ([3]; 1000 g ai/ha) was 40.

From US20100298141A1, “SUBSTITUTED PYRIDINE N-OXIDE HERBICIDES” (E. I. DU PONT DE NEMOURS AND COMPANY, priority 2007, published 2010)
